Test results: PMC8198043, “Tetracyclic Thioxanthene Derivatives: Studies on Fluorescence and Antitumor Activity” (Molecules, 2021)

Experiments:
[1] = tested on: Human Pulmonary Alveolar Epithelial Cells (HPAEpiC); assay: Cell toxicity in non-tumor cells (GI50); type: cell-based; settings: mean ± SD of three independent experiments
Method: (§1) The antitumor activity of compounds was accessed through the determination of the GI50 by the sulforhodamine B assay (SRB, Sigma-Aldrich). Tumor cells were seeded in 96-well plates (0.05 × 10^6 cells/well) in complete culture medium and incubated at 37 °C for 24 h, allowing cell attachment. Cells were then incubated with two-fold serial dilutions of the test compounds, with concentrations ranging from 0 to 75 μM. Dimethyl sulfoxide-treated cells (DMSO), up to 0.25% concentration, were included as compounds solvent control. Forty-eight hours later, cells were fixed with 50% (m/v) trichloroacetic acid (Merck Millipore, Darmstadt, Germany), washed with distilled water and stained with SRB for 30 min at room temperature. The SRB-stained cells were washed 5 times with 1% (v/v) acetic acid (Merck Millipore) and afterwards dried at RT; SRB complexes were solubilized by adding 10 mM Tris-Base buffer (Sigma-Aldrich) for 30 min. Absorbance was measured at 515 nm in a microplate reader (BioTek Synergy 2, BioTek Instruments Inc., Winooski, VT, USA).The concentration that caused cell growth inhibition of 50% (GI50) was determined based on a dose–response curve obtained for each cell line with each test compound.
The non-tumor Human Pulmonary Alveolar Epithelial Cells (HPAEpiC) were used to assess the degree of selectivity of the compounds, as the ratio of GI50 in non-tumor cells over GI50 in cancer cells. A selectivity index value less than 2.0 indicates the general toxicity of the compound [32].

[2] = tested on: A375-C5 (melanoma); assay: SRB cell growth inhibition assay, A375-C5; type: cell-based, human; settings: for GI50: Homo sapiens, A375-C5, SRB assay, continuous exposure for 48 h, mean ± SD, at least three independent experiments, read-out: Antitumor Activity (GI50) A375-C5; for Selectivity Index A375-C5: ratio of GI50 in non-tumor HPAEpiC cells over GI50 in A375-C5
Method: (§2) To evaluate the biological activity of compounds 11–14, three human tumor cell lines (European Collection of Cell Culture, Salisbury, Wiltshire, UK) were used: A375-C5 (melanoma), MCF-7 (breast adenocarcinoma) and NCI-H460 (non-small cell lung cancer). Cells were grown in RPMI-1640 culture medium (Biochrom, Berlin, Germany) supplemented with 5% heat-inactivated fetal bovine serum (FBS, Biochrom) and maintained in a humidified incubator at 37 °C with 5% CO2 (Hera Cell, Heraeus).
as §1

[3] = tested on: MCF-7 (breast adenocarcinoma); assay: SRB cell growth inhibition assay, MCF-7; type: cell-based, human; settings: for GI50: Homo sapiens, MCF7, SRB assay, continuous exposure for 48 h, mean ± SD, at least three independent experiments, read-out: Antitumor Activity (GI50) MCF-7; for Selectivity Index MCF-7: ratio of GI50 in non-tumor HPAEpiC cells over GI50 in MCF-7
Method: as §2, §1

[4] = Photophysical studies (absorption and emission in DMSO); type: physicochemical; settings: for λmax: absorption; for λem: emission; for ΦF: fluorescence quantum yield, by comparison with fluorescein (φf = 90%); for log ε: molar absorption coefficient
Method: The absorption spectra in dimethyl sulfoxide solutions were obtained on a Shimadzu UV-2501 PC spectrophotometer (1 cm path length quartz cell) and the emission spectra were recorded on a JASCO spectrofluorometer. Molar absorption coefficients were determined using 4 measurements in the concentration range 10^−3–10^−6 mol.L^−1. Fluorescence quantum yields were determined by comparison with fluorescein in 0.1 M NaOH water solution as a fluorescence standard (φf = 90%).

[5] = tested on: NCI-H460 (non-small cell lung cancer); assay: SRB cell growth inhibition assay, NCI-H460; type: cell-based, human; settings: for GI50: Homo sapiens, NCI-H460, SRB assay, continuous exposure for 48 h, mean ± SD, at least three independent experiments, read-out: Antitumor Activity (GI50) NCI-H460; for Selectivity Index NCI-H460: ratio of GI50 in non-tumor HPAEpiC cells over GI50 in NCI-H460
Method: as §2, §1

[6] = tested on: A375-C5, MCF-7 and NCI-H460; assay: SRB cell growth inhibition, span over the three tumor cell lines; type: cell-based; settings: Homo sapiens; A375-C5, MCF-7 and NCI-H460 taken together; read-out: GI50, range over the tested cell lines
Method: as §2
The antitumor activity of compounds was accessed through the determination of the GI50 by the sulforhodamine B assay (SRB, Sigma-Aldrich). Tumor cells were seeded in 96-well plates (0.05 × 10^6 cells/well) in complete culture medium and incubated at 37 °C for 24 h, allowing cell attachment. Cells were then incubated with two-fold serial dilutions of the test compounds, with concentrations ranging from 0 to 75 μM. Dimethyl sulfoxide-treated cells (DMSO), up to 0.25% concentration, were included as compounds solvent control. Forty-eight hours later, cells were fixed with 50% (m/v) trichloroacetic acid (Merck Millipore, Darmstadt, Germany), washed with distilled water and stained with SRB for 30 min at room temperature. […]

[7] = tested on: myeloid leukemia K562 cell line (doxorubicin-resistant); design: method as in PMID 26771595; settings: previous results by the group; cited from earlier work
[8] = tested on: myeloid leukemia K562 cell line (doxorubicin-sensitive); design: method as in PMID 26771595; settings: previous results by the group; cited from earlier work

| Compound | GI50 [1] | GI50 [2] | Selectivity Index A375-C5 [2] | GI50 [3] | Selectivity Index MCF-7 [3] | Stokes’ Shift [4] | λmax [4] | λem [4] | ΦF [4] | log ε [4] | GI50 [5] | Selectivity Index NCI-H460 [5] | GI50 [6] | GI50 [7] | GI50 [8] |
| --- | --- | --- | --- | --- | --- | --- | --- | --- | --- | --- | --- | --- | --- | --- | --- |
| CCCOc1ccc2nc(NCc3ccccc3Cl)nc3c2c1Sc1ccccc1-3 [Compound 13, N-(2-Chlorobenzyl)-6-propoxythiochromeno[4,3,2-de]quinazolin-2-amine] | 128 ± 1.56 µM | 22.9 ± 3.75 µM | 5.59 | 18.9 ± 1.42 µM | 6.79 | 91 nm | 457 nm | 548 nm | 31.3% | 3.72 | 17 ± 3.12 µM | 7.54 |  |  |  |
| CCCOc1ccc2nc(N)nc3c2c1Sc1ccccc1-3 [Compound 11, 6-Propoxythiochromeno[4,3,2-de]quinazolin-2-amine] | 26.8 ± 1.2 µM | 6.48 ± 0.88 µM | 4.13 | 6.39 ± 0.49 µM | 4.19 | 92 nm | 456 nm | 548 nm | 29.0% | 3.67 | 5.66 ± 0.89 µM | 4.73 | 5 to 7 µM |  |  |
| CCCOc1ccc2ncnc3c2c1Sc1ccccc1-3 [Compound 12, 6-Propoxythiochromeno[4,3,2-de]quinazoline] | 39.28 ± 0.25 µM | 38.8 ± 5.93 µM | 1.01 | 33.8 ± 1.61 µM | 1.16 | 89 nm | 394 nm | 483 nm | 50.7% | 3.72 | 31.2 ± 1.53 µM | 1.26 |  |  |  |
| CCCOc1ccc(NCCN(CC)CC)c2c(=O)c3ccccc3sc12 [Compound 4] |  |  |  |  |  |  |  |  |  |  |  |  |  | 1900 nM | 1900 nM |
| COc1cccc2c1C(=O)c1c(O)c3c(c(O)c1C2=O)C[C@@](O)(C(=O)CO)C[C@@H]3O[C@H]1C[C@H](N)[C@H](O)[C@H](C)O1 [Doxorubicin, reference compound] | 0.054 ± 0.005 µM | 0.016 ± 0.005 µM | 3.38 | 0.018 ± 0.003 µM | 3.00 |  |  |  |  |  | 0.024 ± 0.006 µM | 2.25 |  |  |  |
| CCCOc1ccc2c3c(n/c(=N/c4ccccc4C)n2-c2ccccc2C)-c2ccccc2Sc13 [Compound 14, (E)-6-Propoxy-N,3-di-o-tolylthiochromeno[4,3,2-de]quinazolin-2(3H)-imine] | > 150 µM | 8.02 ± 3.59 µM |  | 9.04 ± 0.89 µM |  | 80 nm | 480 nm | 560 nm | <0.1% | 4.00 | 10.6 ± 0.31 µM |  | 8 to 11 µM |  |  |
